Structures can show the parent of a compound that is named as a salt. Where two headings read alike, the source gives them in different places.
Key:
[1] = system: Bacillus anthracis, Sterne 34F2; experiment: microbe, parasite or virus in culture; type: cell-based; details: STERNE34F2, read-out: MIC B.a.
[2] = system: Bacillus subtilis (ATCC 23857); experiment: MIC determination, microbroth dilution; type: cell-based; details: ATCC23857; Bacillus subtilis (ATCC 23857); read-out: MIC B.s.
[3] = system: Enterococcus faecalis (ATCC 33186); experiment: MIC determination, microbroth dilution; type: cell-based; details: ATCC33186; Enterococcus faecalis (ATCC 33186); read-out: MIC E.f.
[4] = system: Staphylococcus aureus (ATCC 29213); experiment: MIC determination, microbroth dilution; type: cell-based; details: ATCC29213; Staphylococcus aureus (ATCC 29213); read-out: MIC S.a.
[5] = system: MRSA, Staphylococcus aureus (NRS70); experiment: MIC determination, microbroth dilution; type: cell-based; details: Staphylococcus aureus (NRS70); read-out: MIC MRSA
[6] = system: Streptococcus pneumoniae (R6); experiment: MIC determination, microbroth dilution; type: cell-based
[7] = system: Streptococcus pyogenes (ATCC 700294); experiment: MIC determination, microbroth dilution; type: cell-based; details: ATCC700294; Streptococcus pyogenes (ATCC 700294); read-out: MIC S. py.
[8] = system: acinetobacter baumannii (ATCC 19606); experiment: MIC determination, microbroth dilution; type: cell-based; details: ATCC19606
[9] = system: Burkholderia cepacia (ATCC 25416); experiment: MIC determination, microbroth dilution; type: cell-based; details: Burkholderia cepacia
[10] = system: Escherichia coli (ATCC 700926); experiment: MIC determination, microbroth dilution; type: cell-based; details: ATCC700926; Escherichia coli (ATCC 700926); read-out: MIC E.c.
E. coli K12 ΔtolC = experiment: microbe, parasite or virus in culture; type: cell-based; details: Escherichia coli, read-out: MIC E.c. Δtolc
[11] = system: Klebsiella pneumoniae (ATCC 33495); experiment: MIC determination, microbroth dilution; type: cell-based; details: ATCC33495
[12] = system: Pseudomonas aeruginosa (PA01); experiment: MIC determination, microbroth dilution; type: cell-based
[13] = system: Proteus mirabilis (ATCC 25933); experiment: MIC determination, microbroth dilution; type: cell-based; details: ATCC25933
[14] = system: Proteus vulgaris (ATCC 33420); experiment: MIC determination, microbroth dilution; type: cell-based; details: ATCC33420
[15] = system: Stenotrophomonas maltophilia (ATCC 13637); experiment: MIC determination, microbroth dilution; type: cell-based; details: ATCC13637; Stenotrophomonas maltophilia (ATCC 13637); read-out: MIC S.m.
[16] = system: Haemophilus influenza (ATCC 49247); experiment: microbe, parasite or virus in culture; type: cell-based; details: ATCC49247; Haemophilus influenza; 4 μg per disc; range of at least two experiments; read-out: Zone of inhibition H.i.
[17] = system: Legionella pneumophila (ATCC 33153); experiment: microbe, parasite or virus in culture; type: cell-based; details: ATCC33153, 72 h, read-out: Zone of inhibition L.p.
[18] = system: Neisseria meningitides (ATCC 13077); experiment: Disc diffusion assay; type: cell-based; details: ATCC13077, 4 μg per disc, read-out: Zone of inhibition N.m.
[19] = system: Neisseria gonorrhoeae (ATCC 49226); experiment: Disc diffusion assay; type: cell-based; details: ATCC49226, 4 μg per disc, read-out: Zone of inhibition N.g.
[20] = system: Neisseria gonorrhoeae (ATCC 49226); experiment: Agar MIC determination (Alamar Blue); type: cell-based; details: ATCC49226, agar MIC, read-out: MIC N.g.
Bacillus anthracis = experiment: microbe, parasite or virus in culture; type: cell-based; details: read-out: MIC B.a.
Yersinia pestis = experiment: microbe, parasite or virus in culture; type: cell-based; details: read-out: MIC Y.p.
[21] = system: live vaccine strain (LVS) of Francisella tularensis; experiment: microbe, parasite or virus in culture; type: cell-based; details: Francisella tularensis
[22] = system: Streptococcus pneumoniae clinical isolates representing several serotypes; experiment: MIC determination, Streptococcus pneumoniae panel of clinical isolates (Table 7); type: cell-based; details: Streptococcus pneumoniae
[23] = system: M. tuberculosis clinical isolates; experiment: microbe, parasite or virus in culture; type: cell-based; details: Mycobacterium tuberculosis, H37RV, read-out: MIC H37Rv
Listeria monocytogenes = experiment: MIC determination (Table 6); type: cell-based
Moraxella catarrhalis = experiment: MIC determination (Table 6); type: cell-based
S. pneumoniae = experiment: Resistance frequency determination and cross resistance of spontaneous mutants; type: cell-based, Streptococcus pneumoniae; details: cross resistance testing of 2 mutants

Work on `CN[C@@H]1[C@H](O)[C@H](NC)[C@H]2O[C@]3(O)[C@H](O[C@@H]2[C@H]1O)O[C@H](C)C[C@@]3(O)CNCc1ccc(OC(F)(F)F)cc1` [compound 11, 3′-(R)-3′-[(4-trifluoromethoxyl)benzylaminomethyl)]dihydrospectinomycin Trihydrochloride] yielded an MIC [1] of 100 to 200 µg/mL, an MIC [2] of 100 µg/mL and an MIC [3] of 25 to 50 µg/mL. The MIC [4] was 100 µg/mL, the MIC [5] was 100 to 200 µg/mL and the MIC ([6]; Streptococcus pneumoniae (R6), read-out: MIC S. pn.) was 3.1 µg/mL. It also gave an MIC ([6]; Streptococcus pneumoniae, S. pneumoniae R6, Drug Susceptible, read-out: MIC R6) of 3.1 µg/mL, an MIC [7] of 1.6 µg/mL and an MIC [8] greater than 200 µg/mL. It also gave an MIC ([9]; ATCC25416, read-out: MIC B.c., Burkholderia cepacia (ATCC 25416)) greater than 200 µg/mL, an MIC ([9]; ATCC25416, read-out: MIC B.c., Burkholderia cepacia, Table 6) greater than 200 µg/mL and an MIC [10] of 25 µg/mL. The MIC (E. coli K12 ΔtolC) was 12.5 µg/mL, the MIC [11] was greater than 200 µg/mL and the MIC [12] was 100 to 200 µg/mL. For the same compound, the MIC [13] was greater than 200 µg/mL, the MIC [14] was greater than 200 µg/mL and the MIC [15] was 50 to 100 µg/mL. It also gave a zone of inhibition at 4 µg/disc [16] of 16 mm, a zone of inhibition at 4 µg/disc [17] of 21 mm and a zone of inhibition at 4 µg/disc [18] of 18 to 19 mm. It also gave a zone of inhibition at 4 µg/disc [19] of 16 to 20 mm, an MIC [20] of 12.5 µg/mL and an MIC (Bacillus anthracis) of 100 to 200 µg/mL. It also gave an MIC (Yersinia pestis) of 200 µg/mL, an MIC [21] of 1.6 µg/mL and an MIC ([21]; read-out: MIC F.t.) of 1.6 to 3.1 µg/mL. The MIC ([22]; BAA1407, S. pneumoniae BAA-1407, Macrolide Resistant, read-out: MIC BAA-1407) was 6.3 µg/mL, the MIC ([22]; S. pneumoniae Daw7, PenG Resistant, read-out: MIC Daw7) was 3.1 µg/mL and the MIC ([22]; S. pneumoniae Daw8, PenG Resistant, read-out: MIC Daw8) was 1.6 µg/mL. It also gave an MIC ([22]; S. pneumoniae Daw9, PenG Resistant, read-out: MIC Daw9) of 1.6 µg/mL, an MIC ([22]; S. pneumoniae Daw62, PenG Resistant, read-out: MIC Daw62) of 1.6 µg/mL and an MIC ([22]; S. pneumoniae Daw64, PenG Resistant, read-out: MIC Daw64) of 3.1 µg/mL. It also gave an MIC ([22]; S. pneumoniae OVA6, Macrolide Resistant, read-out: MIC OVA6) of 6.3 µg/mL, an MIC ([22]; S. pneumoniae T4X, Drug Susceptible, read-out: MIC T4X) of 0.8 µg/mL and an MIC [23] of 50 µg/mL. The MIC (Listeria monocytogenes) was 12.5 to 25 µg/mL and the MIC (Moraxella catarrhalis) was 6.3 µg/mL.
With `CC[C@H]1OC(=O)[C@H](C)[C@@H](O[C@H]2C[C@@](C)(OC)[C@@H](O)[C@H](C)O2)[C@H](C)[C@@H](O[C@@H]2O[C@H](C)C[C@H](N(C)C)[C@H]2O)[C@](C)(O)C[C@@H](C)C(=O)[C@H](C)[C@@H](O)[C@]1(C)O` [erythromycin] the “susceptibility of mutants resistant to 2” value (S. pneumoniae) was “susceptible”.
`CC(=O)NC[C@H]1CN(c2ccc(N3CCOCC3)c(F)c2)C(=O)O1` [linezolid] was tested, and the “susceptibility of mutants resistant to 2” value (S. pneumoniae) was “susceptible”.
With `C[C@@H](O)[C@H]1C(=O)N2C(C(=O)O)=C(S[C@@H]3CN[C@H](C(=O)N(C)C)C3)[C@H](C)[C@H]12` [meropenem] the “susceptibility of mutants resistant to 2” value (S. pneumoniae) was “susceptible”.
With `CN[C@H](CC(C)C)C(=O)N[C@H]1C(=O)N[C@@H](CC(N)=O)C(=O)N[C@H]2C(=O)N[C@H]3C(=O)N[C@H](C(=O)N[C@H](C(=O)O)c4cc(O)cc(O)c4-c4cc3ccc4O)[C@H](O)c3ccc(c(Cl)c3)Oc3cc2cc(c3O[C@@H]2O[C@H](CO)[C@@H](O)[C@H](O)[C@H]2O[C@H]2C[C@](C)(N)[C@H](O)[C@H](C)O2)Oc2ccc(cc2Cl)[C@H]1O` [vancomycin] the “susceptibility of mutants resistant to 2” value (S. pneumoniae) was “susceptible”.

— US10266544B2, “Aryl substituted aminomethyl spectinomycin analogs as antibacterial agents” (ST. JUDE CHILDREN'S RESEARCH HOSPITAL, INC., priority 2013, dated 2019)
